Tests used:
Assay type in all cases: cell-based, human
[1] = test system: beige adipocytes; experiment: MitoTracker staining of adipocytes after 8-Br-cAMP; conditions: after 48 hours, vs basal
Description: (§1) The adipocytes were optionally treated for 6 hours with 10^−5 M isoproterenol (Sigma), then the protein samples were collected. For a longer stimulation, the adipocytes were treated with a non-metabolizable cAMP analogue, 8-Br-cAMP (Sigma), for 48 hours.
Living cells at D20 of differentiation were incubated with 1 μM MitoTracker® Red CMXRos (Life Technologies®) for 45 minutes in the dark at 37° C., 5% CO2. After rinsing twice with PBS, the cells were fixed with 3% PFA for 15 minutes at room temperature. The preparation was then incubated for 15 minutes with 1 ng/mL BODIPY 493/503 (Molecular Probes®, D-3922) then rinsed 3 times with PBS before being incubated for 5 minutes in DAPI (4′-6-diamidino-2-phenylindole, VWR). After applying the mounting medium (Fluoromount-G™, Southern Biotech), the cells were observed using a confocal microscope (Leica).

[2] = test system: PGC1α, PRDM16, PPARα and DIO2; experiment: Real-time quantitative PCR of thermogenesis genes after 8-Br-cAMP; conditions: after 48 hours, D20 adipocytes, vs basal
Description: Total RNAs were extracted using the NucleoSpin RNA kit (Macherey Nagel) according to the manufacturer's recommendations. The concentration of total RNAs extracted and their contamination by solvents or salts were evaluated by microspectrophotometry (Nanodrop). Reverse transcription was carried out using the High Capacity cDNA Reverse Transcription Kit (Applied Biosystems). Quantitative PCR was then carried out by adding 2 μL of cDNA diluted 10 times, 10 μL of SYBR Green I PCR mix (Roche Diagnostics, including DNA polymerase, dNTPs, 3 mM MgCl2 and SYBR Green fluorescent probe), 0.2 μM sense primer and 0.2 μM antisense primer (Table 2 below). The reference gene GAPDH was used to normalize the expression of the genes of interest.
as §1

[3] = test system: insulin receptor (IR) and AKT/PKB; experiment: Short insulin treatment of adipocytes derived from iPS cells, phospho-specific Western blot; conditions: adipocytes after 20 days of differentiation
Description: The adipocytes were lysed in a suitable volume of lysis buffer (50 mM Tris pH 7.4, 0.27 M sucrose, 1 mM Na-orthovanadate pH 10, 1 mM EDTA, 1 mM EGTA, 10 mM (3-glycerophosphate, 50 mM NaF, 5 mM pyrophosphate, 1% (w/v) Triton X-100, 0.1% (w/v) 2-β-mercaptoethanol, and protease inhibitors). The total lysates were centrifuged (15,000 g, 4° C. for 10 minutes) then stored at −80° C. until use. The protein concentrations were determined using the Bradford method with bovine albumin as the standard. The samples underwent SDS/PAGE migration on polyacrylamide gels and then were transferred onto nitrocellulose membranes (Amersham Biosciences), blocked for 2 hours at room temperature in TBS-T buffer (50 mM Tris-HCl pH 7.6, 150 mM NaCl, 0.1% (v/v) Tween-20) supplemented with 5% (w/v) skimmed milk or BSA, and incubated with the various antibodies specific to the protein of interest (Table 1 above).
The nitrocellulose membranes were rinsed 3×5 minutes in TBS-T buffer before being incubated with the secondary antibody coupled to peroxidase. The signals were detected using chemiluminescence (Pierce-Perbio Biotechnologies) by exposure on autoradiographic film (Kodak).

Row | Compound | number of mitochondria in the beige adipocytes [1] | expression of genes involved in thermogenesis (PGC1α, PRDM16, PPARα, DIO2) [2] | phosphorylation of the insulin receptor (IR) subunit and its target AKT [3]
1 | Nc1ncnc2c1nc(Br)n2[C@@H]1O[C@@H]2COP(=O)(O)O[C@H]2[C@H]1O [8-Br-cAMP] | increase in the number of mitochondria | increase | –
2 | insulin | – | – | strong phosphorylation

From patent US20170211043A1, “METHOD FOR IN VITRO PRODUCTION OF ADIPOCYTE PROGENITORS AND ADIPOCYTES” (UNIVERSITE PIERRE ET MARIE CURIE (PARIS 6), priority 2014, published 2017)
